Experimental data published in patent US20250332173A1, “COMPOUNDS AND METHODS FOR MODULATING NUCLEIC ACID SPLICING” (REMIX THERAPEUTICS INC., priority 2021, published 2025).
Where two headings read alike, the source gives them in different places.

What was measured:
[1] = test system: K562 (human chronic myelogenous leukemia) cells; test: Cell Titer Glo 2.0 cell viability assay; format: cell-based; details: Homo sapiens, K562, 72 h, K562 cells, 72 hours, Cell Titer Glo 2.0; read-out: K562 GI50
Target C = test: RT-qPCR splicing assay panel, Target C canonical junction (CJ) mRNA; format: cell-based, human; details: Homo sapiens; canonical junction qPCR panel, Table 5; read-out: Target C (decrease in CJ mRNA levels, IC50)
Summary of the method: (§1)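 Canonical-junction transcript levels in compound-treated A673 or K562 cells (24 h, up to 10 uM final) were determined from lysates by RT-qPCR with housekeeping-gene normalization.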

HTT mRNA = test: RT-qPCR splicing assay, HTT canonical junction (CJ) and alternative junction (AJ) mRNA; format: cell-based, human; details: Homo sapiens; for AC50: increase in HTT alternative junction (AJ) mRNA, read-out: HTT AJ AC50
Summary of the method: (§2)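 Read-out is one-step RT-qPCR on cell lysates detecting the exon-exon junction of each isoform, normalized to a housekeeping gene (PPIA in A673, GAPDH or GUSB in K562).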

SMN2 mRNA = test: RT-qPCR splicing assay, SMN2 canonical junction (CJ) mRNA; format: cell-based, human; details: Homo sapiens; canonical junction qPCR panel, Table 5; read-out: SMN2 (decrease in CJ mRNA levels, IC50)
Summary of the method: as §1

MYB mRNA = test: RT-qPCR splicing assay, MYB canonical junction (CJ) and alternative junction (AJ) mRNA; format: cell-based, human; details: Homo sapiens; for AC50: increase in MYB alternative junction (AJ) mRNA, read-out: MYB AJ AC50
Summary of the method: as §2

[2] = decrease in HTT canonical junction (CJ) mRNA, RT-qPCR, read-out: HTT CJ IC50
[3] = canonical junction qPCR panel, Table 5, read-out: HTT (decrease in CJ mRNA levels, IC50)
[4] = canonical junction qPCR panel, Table 5, read-out: MYB (decrease in CJ mRNA levels, IC50)
[5] = decrease in MYB canonical junction (CJ) mRNA, RT-qPCR, read-out: MYB CJ IC50

Structure (SMILES) | GI50 [1] [nM] | IC50 (Target C) [nM] | IC50 (HTT mRNA; [2]) [nM] | AC50 (HTT mRNA; RT-qPCR) [nM] | IC50 (HTT mRNA; [3]) [nM] | IC50 (SMN2 mRNA) [nM] | IC50 (MYB mRNA; [4]) [nM] | IC50 (MYB mRNA; [5]) [nM] | AC50 (MYB mRNA; RT-qPCR) [nM]
Cc1cn2nc(-c3ccc4c(=O)n([C@H]5CCNC6(CCC6)C5)ncc4n3)cc(C)c2n1 [Compound 1544, 6-[(8S)-5-azaspiro[3.5]nonan-8-yl]-2-(2,8-dimethylimidazo[1,2-b]pyridazin-6-yl)pyrido[2,3-d]pyridazin-5-one] | 100 to 1000 | 100 to 1000 | 100 to 1000 | 100 to 1000 | 100 to 1000 | 100 to 1000 | 100 to 1000 | 100 to 1000 | 100 to 1000
Cc1cn2nc(-c3ccc4c(=O)n(C5CCNCC5)ccc4n3)cc(C)c2n1 [Compound 1499, 2-(2,8-dimethylimidazo[1,2-b]pyridazin-6-yl)-6-(4-piperidyl)-1,6-naphthyridin-5-one] | 100 to 1000 | 100 to 1000 | < 100 | < 100 | < 100 | < 100 | < 100 | < 100 | < 100
Cc1cn2cc(-c3ccc4c(=O)n([C@H]5CCN[C@@H](C)C5)ccc4n3)cc(F)c2n1 [Compound 1494] | 100 to 1000 | 1000 to 10000 | 1000 to 10000 | 1000 to 10000 | 1000 to 10000 | < 100 | 100 to 1000 | 100 to 1000 | 100 to 1000
Cc1cn2cc(-c3ncc4c(=O)n([C@H]5CCN[C@@H](C)C5)ccc4n3)cc(F)c2n1 [Compound 1500, 2-(8-fluoro-2-methyl-imidazo[1,2-a]pyridin-6-yl)-6-[(2S,4S)-2-methyl-4-piperidyl]pyrido[4,3-d]pyrimidin-5-one] | 100 to 1000 | 100 to 1000 | 100 to 1000 | 100 to 1000 | 100 to 1000 | < 100 | < 100 | < 100 | < 100
Cc1c(O)c(-c2ncc3c(=O)n(C45CCC(N(C)C)(CC4)C5)ccc3n2)cc2cn(C)nc12 [Compound 1488] | 100 to 1000 | 1000 to 10000 | 1000 to 10000 | 100 to 1000 | 100 to 1000 | < 100 | 100 to 1000 | 100 to 1000 | 100 to 1000
Cc1cn2nc(-c3ccc4c(=O)n([C@H]5CCNC6(CCC6)C5)ccc4n3)cc(C)c2n1 [Compound 1518] | 100 to 1000 | 100 to 1000 | 100 to 1000 | 100 to 1000 | 100 to 1000 | < 100 | 100 to 1000 | < 100 | 100 to 1000
Cc1c(O)c(-c2ncc3c(=O)n([C@H]4C[C@H]5COC[C@@H](C4)N5)ccc3n2)cc2cn(C)nc12 [Compound 1472] | 1000 to 10000 | 1000 to 10000 | 1000 to 10000 | 1000 to 10000 | 1000 to 10000 | 100 to 1000 | 100 to 1000 | 100 to 1000 | 100 to 1000
C[C@@H]1C[C@H](n2ccc3nc(-c4cc5cn(C)nc5cc4O)ncc3c2=O)CCN1 [Compound 1474] | 100 to 1000 | 1000 to 10000 | 1000 to 10000 | 1000 to 10000 | 1000 to 10000 | < 100 | 100 to 1000 | 1000 to 10000 | 100 to 1000
Cc1cn2cc(-c3cc(C)c4c(=O)n(C5CCNCC5)ccc4n3)cc(F)c2n1 [Compound 1524, 2-(8-fluoro-2-methyl-imidazo[1,2-a]pyridin-6-yl)-4-methyl-6-(4-piperidyl)-1,6-naphthyridin-5-one] | 100 to 1000 | 100 to 1000 | 100 to 1000 | 100 to 1000 | 100 to 1000 | < 100 | 100 to 1000 | < 100 | 100 to 1000
Cc1cn2cc(-c3ncc4c(=O)n(C5C[C@@H](C)N[C@H](C)C5)ccc4n3)cc(F)c2n1 (stereo partly drawn) [Compound 1483, 6-[(2R,6R)-2,6-dimethyl-4-piperidyl]-2-(8-fluoro-2-methyl-imidazo[1,2-a]pyridin-6-yl)pyrido[4,3-d]pyrimidin-5-one] | 100 to 1000 | 100 to 1000 | 1000 to 10000 | 100 to 1000 | 100 to 1000 | < 100 | 100 to 1000 | 1000 to 10000 | 100 to 1000
Cc1cn2cc(-c3ccc4c(=O)n(C5C[C@H](C)N[C@@H](C)C5)ccc4n3)cc(F)c2n1 (stereo partly drawn) [Compound 1502, 6-[(2S,6S)-2,6-dimethyl-4-piperidyl]-2-(8-fluoro-2-methyl-imidazo[1,2-a]pyridin-6-yl)-1,6-naphthyridin-5-one] | 100 to 1000 | 1000 to 10000 | 1000 to 10000 | 1000 to 10000 | 1000 to 10000 | < 100 | 100 to 1000 | 100 to 1000 | 100 to 1000
Cc1cn2nc(-c3ccc4c(=O)n([C@H]5CCNC6(CC6)C5)ncc4n3)cc2c(C)n1 [Compound 1549, 6-[(7S)-4-azaspiro[2.5]octan-7-yl]-2-(4,6-dimethylpyrazolo[1,5-a]pyrazin-2-yl)pyrido[2,3-d]pyridazin-5-one] | 1000 to 10000 | 1000 to 10000 | 100 to 1000 | 100 to 1000 | 100 to 1000 | 100 to 1000 | 1000 to 10000 | 1000 to 10000 | 1000 to 10000
Cc1cn2nc(-c3ccc4c(=O)n([C@@H]5CCN[C@@H](C6CC6)C5)ncc4n3)cc(C)c2n1 [Compound 1551] | 100 to 1000 | 100 to 1000 | 100 to 1000 | 100 to 1000 | 100 to 1000 | < 100 | 100 to 1000 | 100 to 1000 | 100 to 1000
Cn1cc2cc(-c3ncc4c(=O)n(C56CCC(N)(CC5)C6)ccc4n3)cc(F)c2n1 [Compound 1489, 6-(4-aminonorbornane-1-yl)-2-(7-fluoro-2-methyl-indazol-5-yl)pyrido[4,3-d]pyrimidin-5-one] | 100 to 1000 | 1000 to 10000 | 1000 to 10000 | 1000 to 10000 | 1000 to 10000 | < 100 | 100 to 1000 | 100 to 1000 | 100 to 1000
Cc1cn2cc(-c3ncc4c(=O)n(C5C[C@H](C)N[C@@H](C)C5)ccc4n3)cc(F)c2n1 (stereo partly drawn) [Compound 1482, 6-[(2S,6S)-2,6-dimethyl-4-piperidyl]-2-(8-fluoro-2-methyl-imidazo[1,2-a]pyridin-6yl)pyrido[4,3-d]pyrimidin-5-one] | < 100 | 100 to 1000 | 1000 to 10000 | 1000 to 10000 | 1000 to 10000 | < 100 | < 100 | 100 to 1000 | < 100
Cc1c(O)c(-c2ccc3c(=O)n([C@H]4CCN[C@@H](C)C4)ccc3n2)cc2cn(C)nc12 [Compound 1520, 2-(6-hydroxy-2,7-dimethyl-indazol-5-yl)-6-[(2S,4S)-2-methyl-4-piperidyl]-1,6-naphthyridin-5-one] | < 100 | 100 to 1000 | 100 to 1000 | < 100 | < 100 | < 100 | < 100 | < 100 | < 100
Cc1c(O)c(-c2ccc3c(=O)n(C45CCC(N)(CC4)C5)ccc3n2)cc2cn(C)nc12 [Compound 1486] | < 100 | 1000 to 10000 | 1000 to 10000 | 100 to 1000 | 100 to 1000 | < 100 | < 100 | 100 to 1000 | < 100
Cn1cc2cc(-c3ccc4c(=O)n(C56CCC(N)(CC5)C6)ccc4n3)c(O)cc2n1 [Compound 1481, 6-(4-aminonorbornane-1-yl)-2-(6-hydroxy-2-methyl-indazol-5-yl)-1,6-naphthyridin-5-one] | < 100 | 1000 to 10000 | 1000 to 10000 | 100 to 1000 | 100 to 1000 | < 100 | < 100 | 100 to 1000 | < 100
Cc1cn2cc(-c3nc(C)c4c(=O)n(C5C[C@H](C)N[C@@H](C)C5)ccc4n3)cc(F)c2n1 (stereo partly drawn) [Compound 1523] | 100 to 1000 | 1000 to 10000 | 1000 to 10000 | 100 to 1000 | 100 to 1000 | < 100 | 100 to 1000 | < 100 | 100 to 1000
